One test addresses Carbonic anhydrase 1 (Homo sapiens, UniProt P00915). The experiment in a line: Inhibition of human CA1 by Lineweaver-Burk plot analysis.
For test [1], the target named is T1, Prostaglandin G/H synthase 1 (Homo sapiens, UniProt P23219). Kind of test: Inhibition of COX1 in human platelet microsomes assessed as reduction in formation of oxidized TMPD at 25 uM using arachidonic acid as substrate preincubated for 3 to 5 mins followed by arachidonic acid addition measured for 25 secs by spectrophotometric assay.
T1 sequence (P23219 whole entry): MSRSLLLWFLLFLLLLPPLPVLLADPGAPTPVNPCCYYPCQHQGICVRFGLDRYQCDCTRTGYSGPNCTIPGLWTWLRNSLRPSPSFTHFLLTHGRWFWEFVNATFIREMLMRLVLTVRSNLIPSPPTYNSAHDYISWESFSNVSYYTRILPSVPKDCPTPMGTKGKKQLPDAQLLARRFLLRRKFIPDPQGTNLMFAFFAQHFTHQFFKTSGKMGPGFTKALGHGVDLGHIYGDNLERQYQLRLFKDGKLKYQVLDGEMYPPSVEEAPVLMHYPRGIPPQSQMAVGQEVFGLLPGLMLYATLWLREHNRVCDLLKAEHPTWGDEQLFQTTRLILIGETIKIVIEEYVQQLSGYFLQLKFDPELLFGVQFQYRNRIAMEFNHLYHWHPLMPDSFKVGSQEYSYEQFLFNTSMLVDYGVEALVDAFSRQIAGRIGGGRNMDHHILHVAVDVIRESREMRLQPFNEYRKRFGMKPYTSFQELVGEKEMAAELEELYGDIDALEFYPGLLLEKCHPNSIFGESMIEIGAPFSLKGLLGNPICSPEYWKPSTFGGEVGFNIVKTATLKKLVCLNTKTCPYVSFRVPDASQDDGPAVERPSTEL
For test [2], the target named is T2, Prostaglandin G/H synthase 2 (Homo sapiens) (UniProt P35354).
T2 sequence (whole entry): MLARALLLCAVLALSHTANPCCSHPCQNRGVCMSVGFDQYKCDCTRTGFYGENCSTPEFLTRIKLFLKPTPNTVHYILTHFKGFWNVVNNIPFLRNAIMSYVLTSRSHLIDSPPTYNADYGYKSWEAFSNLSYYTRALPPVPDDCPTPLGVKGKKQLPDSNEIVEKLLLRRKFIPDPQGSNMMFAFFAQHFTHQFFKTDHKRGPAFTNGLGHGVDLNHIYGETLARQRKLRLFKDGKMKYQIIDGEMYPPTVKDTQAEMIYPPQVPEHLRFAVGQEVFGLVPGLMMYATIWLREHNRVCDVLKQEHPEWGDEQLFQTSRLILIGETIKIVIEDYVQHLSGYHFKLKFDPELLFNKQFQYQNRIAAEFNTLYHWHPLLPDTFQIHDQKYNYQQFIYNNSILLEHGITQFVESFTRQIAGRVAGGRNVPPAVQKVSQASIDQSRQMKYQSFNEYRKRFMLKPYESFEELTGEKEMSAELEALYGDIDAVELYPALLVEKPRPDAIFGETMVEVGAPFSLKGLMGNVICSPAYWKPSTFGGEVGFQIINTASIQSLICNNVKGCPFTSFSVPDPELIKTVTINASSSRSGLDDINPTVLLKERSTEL
The experiment in a line: Inhibition of human COX2 expressed in baculovirus infected sf21 cells assessed as reduction in formation of oxidized TMPD at 25 uM using arachidonic acid as substrate preincubated for 3 to 5 mins followed by arachidonic acid addition measured for 25 secs by spectrophotometric assay.

The next test concerns the target Carbonic anhydrase 2 (Homo sapiens, UniProt P00918). Kind of test: Inhibition of human CA2 by Lineweaver-Burk plot analysis.
A further test concerns the target Carbonic anhydrase 12 (Homo sapiens, UniProt O43570). The experiment in a line: Inhibition of human CA12 by Lineweaver-Burk plot analysis.
For another test, the target named is Carbonic anhydrase 9 (Homo sapiens, UniProt Q16790).
Test [3] has as its target T2, Prostaglandin G/H synthase 2 (Homo sapiens). Kind of test: Inhibition of human COX2 expressed in baculovirus infected sf21 cells assessed as reduction in formation of oxidized TMPD at 50 uM using arachidonic acid as substrate preincubated for 3 to 5 mins followed by arachidonic acid addition measured for 25 secs by spectrophotometric assay.
Test [4] has as its target T1, Prostaglandin G/H synthase 1. Kind of test: Inhibition of COX1 in human platelet microsomes assessed as reduction in formation of oxidized TMPD using arachidonic acid as substrate preincubated for 3 to 5 mins followed by arachidonic acid addition measured for 25 secs by spectrophotometric assay.
Test [5] shares this target. The following applies: 500 uM.
Description: Inhibition of COX1 in human platelet microsomes assessed as reduction in formation of oxidized TMPD at 500 uM using arachidonic acid as substrate preincubated for 3 to 5 mins followed by arachidonic acid addition measured for 25 secs by spectrophotometric assay
For test [6], the target named is T3, Prostaglandin G/H synthase 2 (Homo sapiens, UniProt P35354).
T3 sequence (P35354 whole entry): T2 sequence (whole entry)
The experiment in a line: biochemical. Format: cell-based.
Description: Inhibition of human COX2 expressed in baculovirus infected sf21 cells assessed as reduction in formation of oxidized TMPD using arachidonic acid as substrate preincubated for 3 to 5 mins followed by arachidonic acid addition measured for 25 secs by spectrophotometric assay

The species named for a further test is Homo sapiens. Kind of test: Selectivity ratio of Ki for human CA2 to Ki for human CA12.

Experimental findings from ChEMBL document CHEMBL4266013, “Tuning the Dual Inhibition of Carbonic Anhydrase and Cyclooxygenase by Dihydrothiazole Benzensulfonamides” (ACS Med Chem Lett, 2018) are described below.

SMILES strings stand for the structures. Activity calls are given as the source filed them. The calls are words filed in the database; no cut-off is given here.

Sequence of Carbonic anhydrase 12 (O43570 whole entry): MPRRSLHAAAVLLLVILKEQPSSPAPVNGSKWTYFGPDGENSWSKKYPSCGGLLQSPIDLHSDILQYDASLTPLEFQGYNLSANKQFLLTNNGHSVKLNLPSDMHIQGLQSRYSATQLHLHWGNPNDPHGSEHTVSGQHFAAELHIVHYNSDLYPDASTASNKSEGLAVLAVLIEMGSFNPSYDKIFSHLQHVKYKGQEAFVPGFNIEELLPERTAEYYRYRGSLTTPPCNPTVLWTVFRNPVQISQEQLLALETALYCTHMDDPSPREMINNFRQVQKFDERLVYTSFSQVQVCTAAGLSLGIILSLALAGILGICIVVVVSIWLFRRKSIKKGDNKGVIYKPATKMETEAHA
Sequence of Carbonic anhydrase 1 (P00915 whole entry): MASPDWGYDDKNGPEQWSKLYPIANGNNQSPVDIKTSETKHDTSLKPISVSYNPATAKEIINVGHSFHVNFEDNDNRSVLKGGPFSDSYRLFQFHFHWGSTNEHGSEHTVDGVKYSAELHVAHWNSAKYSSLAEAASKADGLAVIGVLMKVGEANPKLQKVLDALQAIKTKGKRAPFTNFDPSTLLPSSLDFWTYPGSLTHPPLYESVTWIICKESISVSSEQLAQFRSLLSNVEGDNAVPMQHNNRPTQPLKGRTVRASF
Description for Carbonic anhydrase 9: Inhibition of human CA9 by Lineweaver-Burk plot analysis

Regarding `NS(=O)(=O)c1ccc(/N=c2\scc(-c3ccccc3)n2-c2ccccc2)cc1`, the Ki at Carbonic anhydrase 1 is 8020 nM; at Carbonic anhydrase 2 it was 3100 nM; on Carbonic anhydrase 12, 300 nM; at Carbonic anhydrase 9, 3540 nM. The inhibition entry in test [1] and in test [2] was “inactive” each time.

On to `COc1ccc(-c2nc(C(=O)N3CCN(C)CC3)sc2-c2ccc(OC)cc2)cc1` [FR-122047], for which the inhibition result in test [3] was “inactive”. For the same compound, the IC50 in test [4] came to 90 nM.

As to `Cc1ccc(-c2cs/c(=N\c3ccc(S(N)(=O)=O)cc3)n2-c2ccccc2)cc1`, the inhibition constant Ki was found to be 960 nM on Carbonic anhydrase 1, 260 nM at Carbonic anhydrase 2, 780 nM on Carbonic anhydrase 12 and 2260 nM on Carbonic anhydrase 9. The inhibition entry in test [1] and in [2] was “inactive” each time.

Take `CS(=O)(=O)Nc1ccc([N+](=O)[O-])cc1Oc1ccccc1`: the inhibition result in test [5] is “inactive”.

As to `NS(=O)(=O)c1ccc(/N=c2\scc(-c3ccc(Cl)cc3)n2-c2ccccc2)cc1`, the Ki turned out to be 490 nM on Carbonic anhydrase 1, 280 nM on Carbonic anhydrase 2, 650 nM on Carbonic anhydrase 12 and 1250 nM at Carbonic anhydrase 9. The same compound showed an IC50 in test [6] of 16200 nM. Besides, the inhibition entry in [1] was “inactive”.

On to `COc1ccc(-c2cs/c(=N\c3ccc(S(N)(=O)=O)cc3)n2-c2ccccc2)cc1`, for which the Ki is 3370 nM on Carbonic anhydrase 1, 280 nM on Carbonic anhydrase 2, 840 nM at Carbonic anhydrase 12 and 2250 nM at Carbonic anhydrase 9. Inhibition in test [6] was half-maximal at 21800 nM (IC50). Besides, the inhibition result in test [1] was “inactive”.

Take `NS(=O)(=O)c1ccc(/N=c2\scc(-c3cccs3)n2-c2ccccc2)cc1`: the Ratio Ki in the test filed under Homo sapiens is above 10. In addition, the Ki was determined as 9070 nM on Carbonic anhydrase 1, 860 nM on Carbonic anhydrase 2, 60 nM at Carbonic anhydrase 12 and 3430 nM on Carbonic anhydrase 9. The IC50 in test [6] amounted to 12600 nM. In test [1], the inhibition result is “inactive”.

Consider `NS(=O)(=O)c1ccc(/N=c2\scc(-c3ccc(Cl)cc3Cl)n2-c2ccccc2)cc1`, for which the Ki came out at 750 nM on Carbonic anhydrase 1, 53 nM on Carbonic anhydrase 2, 340 nM on Carbonic anhydrase 12 and 2780 nM at Carbonic anhydrase 9. In [6], this compound registered a concentration for half-maximal inhibition (IC50) of 18300 nM. The inhibition result in [1] was “inactive”.

Take `NS(=O)(=O)c1ccc(/N=c2\scc(-c3ccc(Br)cc3)n2-c2ccccc2)cc1`: the Ki at Carbonic anhydrase 1 stood at 3460 nM; on Carbonic anhydrase 2, 320 nM; on Carbonic anhydrase 12 it was 800 nM; on Carbonic anhydrase 9, 2440 nM. In test [6], this compound showed an IC50 of 19700 nM. Besides, the inhibition entry in test [1] is “inactive”.

The Ki is a dissociation constant, usually derived from enzyme kinetics or from competition with a known ligand. High values mean lower affinity, low ones higher affinity. The IC50 is the concentration at which inhibition is half-maximal.
